In publication PMC9737772, “Synthesis and Anti-Inflammatory Activity of 1-Methylhydantoin Cinnamoyl Imides” (Molecules, 2022):

Assays:
[1] = system: xylene-induced ear edema in mice; assay: Xylene-induced ear edema in mice; type: in vivo, Kunming mice; details: for Degree of Edema: 30 μL xylene, 30 min, mean ± SD, n = 6; for Inhibition of ear swelling: xylene-induced ear edema
Protocol: To evaluate the differences in anti-inflammatory effects of the five compounds, the in vivo anti-inflammatory experiment was conducted based on the acute inflammation model of ear swelling induced by xylene. Under the inflammatory effect of 30 μL of xylene, the degree of ear swelling in the blank group and each experimental group was different. […] With an increase in dose the degree of ear swelling decreased, and the effect of ear swelling inhibition was more significant at high dose (100 mg/kg). Under the action of drugs, the five target compounds (1–5) have significant inhibitory effects on ear swelling (Figure 6).
Adult male Kunming mice (18–20 g) were bought from Liaoning Changsheng Biotechnology Co., Ltd. (Shenyang, China, License No. SCXK (Liao) 2015-0001). The breeding is carried out under standard conditions without pathogens (constant room temperature 20–22 °C, 55 ± 5% humidity, 12 h light–dark cycle and free access to food and water). The research protocol has been approved by the Animal Experiment Ethics Committee of the School of Pharmacy of Jilin University (20190048). All experimental operations follow the principles of laboratory animal care, and all animal experiments are conducted in accordance with the Guide for the Care and Use of Laboratory Animals (released by the National Research Council).
In this experiment, Kunming mice were randomly divided into two groups. One group was given 5% sodium carboxymethyl cellulose solution as the blank group, and the other group was given different concentrations of the target compound as the experimental group (high, medium and low doses); continuous intragastric administration was two days and the volume of intragastric administration was 0.2 mL. One hour after the last administration, 30 μL of xylene was evenly smeared on both sides of the mouse’s right ear. After 30 min, the mouse’s right ear was obviously red and swollen and the capillary congestion was severe. Cervical vertebrae were dislocated and sacrificed. The ears on both sides were quickly cut off, an 8 mm ear punch was used to punch holes at the same position on the ears on both sides and they were immediately weighed to calculate the weight difference.
The formula for the difference in ear weight is as follows:(2) D=Wr−Wl where Wr was the weight of the right ear and Wl was the weight of the left ear.
The formula for the inhibition rate of ear swelling is as follows:(3) Inhibition %=Dc−Dt/Dc×100% where Dc was the extent of ear edema of the control group and Dt was the extent of ear edema of the treatment group.

[2] = system: TNF-α secretion in RAW264.7 cells induced by LPS; assay: TNF-α content in supernatant of LPS-induced RAW264.7 cells (ELISA); type: cell-based, mouse; details: 20 μM, LPS 1 ug/mL, 24 h, RAW264.7, vs model group
Protocol: Tumor necrosis factor-α (TNF-α) is a pleiotropic proinflammatory cytokine, known for its proinflammatory activity. To explore the inhibitory effects of five compounds on TNF-α, ELISA was used to determine the content of inflammatory factor TNF-α in the supernatant of RAW264.7 cells stimulated by LPS. RAW264.7 cells secreted a large amount of inflammatory-factor TNF-α 24 h after LPS (1 ug/mL) induction.
(§1) RAW264.7 mouse macrophages were purchased from Zhongqiao Xinzhou and cultured in DMEM supplemented with 10% fetal bovine serum (FBS) and 1% penicillin/streptomycin in a 37 °C, 5% CO2 incubator. The cells were passaged every two days to maintain the monolayer cell state.
(§2) The RAW264.7 cells in the logarithmic growth phase were seeded in a 24-well plate and placed in a 37 °C, 5% CO2 constant temperature incubator for culture. After 24 h, the culture medium was discarded. The blank group was added with 10% FBS DMEM 1 mL. The group was added with a medium containing 1 ug/mL LPS, and the experimental group was added with LPS and different concentrations of the target compound to make the final volume 1 mL. After 24 h of culture, the cell supernatant was taken and stored in a refrigerator at −20 °C for later use. The Griess kit was used to determine the concentration of NO in the supernatant, and a double antibody sandwich ELISA kit was used to detect TNF-α and IL-1β.

[3] = system: IL-1β secretion in RAW264.7 cells induced by LPS; assay: IL-1β content in supernatant of LPS-induced RAW264.7 cells (ELISA); type: cell-based, mouse; details: 20 μM, LPS, 24 h, RAW264.7, vs model group
Text: Interleukin-1β (IL-1β) has strong proinflammatory activity and can induce the production of a variety of proinflammatory mediators, such as cytokines and chemokines. In this work, the ELISA method was used to determine the IL-1β content in the supernatant of RAW264.7 cells stimulated by LPS to evaluate the effects of five compounds on IL-1β secretion.
as §1, §2

[4] = Cytotoxicity determination by CCK-8; type: cell-based; details: mouse, RAW264.7 macrophage cells, RAW264.7 cells
Protocol: as §1
The CCK-8 kit was used to determine the cytotoxicity of the target compounds (1–5) to RAW264.7 cells. The well-growing cells were subcultured in a 96-well plate. After the cells adhered to the wall, the experimental group was added with a medium containing different concentrations of compounds to make the final concentration reach 5, 10, 20, 40, 80, 160 and 320 μmoL/L. The control group was added with a medium without compound, and a blank group without cells or compound was set at the same time. After culturing in a constant temperature incubator for a period, CCK-8 solution was added to produce yellow formazan product. The OD value was measured by the microplate reader at the detection wavelength of 450 nm, and the cell survival rate was calculated. The cell survival rate formula is as follows:(1) Cell Survival Rate %=ODe−ODb/ODc−ODb×100% where ODe was the OD value of the experimental group, ODb was the OD value of the blank group, and ODc was the OD value of the control group.

[5] = system: xylene-induced ear edema in mice; design: method as in PMID 31247960, doi:10.2174/157018012800673092; details: previous study; cited from earlier work
[6] = 25 mg/kg intragastric for two days
[7] = 50 mg/kg intragastric for two days
[8] = 100 mg/kg (high dose) intragastric
[9] = 100 mg/kg intragastric for two days

| Structure (SMILES) | Degree of Edema [1, 6] | Inhibition of ear swelling ([1]; 25 mg/kg intragastric) | Degree of Edema [1, 7] | Inhibition of ear swelling ([1]; 50 mg/kg intragastric) | Inhibition of ear swelling [1, 8] | Degree of Edema [1, 9] | inhibition of TNF-α secretion [2] | inhibition of IL-1β secretion [3] | melting point | CC50 [4] | effect on ear edema in mice caused by xylene [5] |
| --- | --- | --- | --- | --- | --- | --- | --- | --- | --- | --- | --- |
| CN1CC(=O)N(C(=O)C=Cc2ccccc2)C1=O [Compound 1, 3-cinnamoyl-1-methylimidazolidine-2,4-dione] | 9.84 ± 0.72 mg | 19.67% | 8.47 ± 0.64 mg | 30.86% | 44.16% | 6.84 ± 0.61 mg | no obvious inhibitory effect on TNF-α | no obvious inhibitory effect on IL-1β | 140.6 to 141.5 °C | 264 µM |  |
| CN1CC(=O)N(C(=O)/C=C/c2ccc3c(c2)OCO3)C1=O [Compound 3, (E)-3-(3-(benzo[d][1,3]dioxol-5-yl)acryloyl)-1-methylimidazolidine-2,4-dione] | 9.41 ± 1.37 mg | 23.18% | 9.05 ± 0.84 mg | 26.12% | 33.06% | 8.20 ± 0.27 mg | no obvious inhibitory effect on TNF-α | no obvious inhibitory effect on IL-1β | 164.8 to 166.1 °C | 184 µM |  |
| COc1cc(/C=C/C(=O)N2C(=O)CN(C)C2=O)ccc1OC(C)=O [Compound 5, (E)-2-methoxy-4-(3-(3-methyl-2,5-dioxoimidazolidin-1-yl)-3-oxoprop-1-en-1-yl)phenyl acetate] | 10.46 ± 0.64 mg | 14.61% | 7.95 ± 0.71 mg | 35.10% | 52.08% | 5.87 ± 0.75 mg | no obvious inhibitory effect on TNF-α | no obvious inhibitory effect on IL-1β | 148.3 to 149.8 °C | 232 µM |  |
| CN1CC(=O)NC1=O [MHD, 1-Methylhydantoin] |  |  |  |  |  |  |  |  |  |  | can reduce ear edema in mice caused by xylene |
